Measurements published in article PMC5502055, “Phase II study of lanreotide autogel in Japanese patients with unresectable or metastatic well-differentiated neuroendocrine tumors” (Investigational New Drugs, 2017).
Where two headings read alike, the source gives them in different places.

Legend:
[1] = system: non-functional enteropancreatic NET; conditions: CLARINET study, cited from earlier work
From the text: Tumors occurring in nerves or endocrine cells anywhere in the body can be classified as neuroendocrine neoplasm (NEN). NEN is classified into poorly-differentiated neuroendocrine carcinoma and well-differentiated neuroendocrine tumor (NET). NET is a rare disease and tends to proliferate slowly. According to an epidemiological survey conducted in Japan in 2010, the incidence of new pancreatic and gastrointestinal NET was 4.78 per 100,000 people (estimated number of patients treated: 11,467). The incidences of NET other than pancreatic and gastrointestinal NET remain unknown in Japan, wher ... || Furthermore, in the CLARINET study, a median PFS was not reached at 96 weeks (24 months), in contrast to the median PFS of 36.3 weeks (based on the RECIST ver. 1.1) in the present study. This difference is attributed to differences in baseline disease characteristics of the patient and tumor characteristics. The percentages of patients with PD at baseline and prior treatment for NET were 39.3% (11/28 patients) and 78.6% (22/28 patients), respectively, in the present, and only 4.0% (4/101 patients) and 15.8% (16/101 patients), respectively, in the CLARINET study. The current Japanese stud ...

[2] = Pharmacokinetics: serum lanreotide concentration (radioimmunoassay); format: in vivo, human
Method: (§1) Full analysis set (FAS) and CLARINET-like FAS which was satisfied eligibility criteria of the CLARINET study were used for efficacy analysis. Safety analysis set which included patients who had received the study drug at least once was used for safety analysis. Per protocol set (PPS) was used for pharmacokinetic analysis.
Regarding pharmacokinetics evaluations, serum lanreotide concentrations were determined on the day of first administration (before and 2 and 4 h after administration of the study drug) and at 4, 8, 12, 16, and 20 (before and 2 and 4 h after administration of the study drug), 24, 36, and 48 weeks after the start of administration (or at the time of discontinuation). Serum lanreotide concentrations were centrally determined using a validated radioimmunoassay (RIA; Kymos Pharma Services S.L., Barcelona, Spain).

[3] = system: Japanese patients with grade (G) 1/G2 NET; assay: Post hoc analysis of tumor growth rate (TGR); format: in vivo, human; parameters: key to TGR (0-Last): % change in tumor volume per month; conditions: for TGR (0-Last): mean ± SD
Method: The descriptive statistics of tumor growth rate (TGR) were calculated in a post hoc analysis of the FAS. The TGR estimates the change of the tumor volume during 1 month. This value incorporates the intervals between imaging tests, thus allowing a quantitative and dynamic evaluation of the tumor response. Scatter plots were prepared, and a subgroup analysis was conducted. To calculate TGR, results evaluated by the investigator were used before baseline, and results determined via central evaluation were used after baseline. There were not enough events for multivariate analysis, therefore univariate analysis based on the Cox proportional hazard model was implemented to assess prognostic factors.
The TGR per unit time was calculated in the post-hoc analysis. From past to 0 (baseline), the results of the investigator’s evaluation were used for tumor lesions, after baseline, the results of a central evaluation were used for the tumor lesions. The TGR (mean ± SD) before the first injection was 25.3 ± 35.7%, and the TGR from baseline to the last value was 5.4 ± 10.7% (Fig. 4).

[4] = CLARINET study; cited from earlier work
From the text: No interracial differences were observed regarding drug concentrations in the blood. This inter-study difference in the number of treatment required to achieve steady state is attributed to the associated with the low num ...

[5] = system: Japanese patients with grade (G) 1/G2 NET; assay: Safety: adverse events (NCI-CTCAE ver. 4.0); format: in vivo, human; conditions: for Adverse events (any): N=32
Method: For the safety evaluation, adverse events (AEs) were recorded after the first injection until the point of data cutoff (December 2015) in the extension study. AE severity was assessed according to the National Cancer Institute Common Terminology Criteria for Adverse Events (NCI-CTCAE) ver. 4.0. Gallbladder echography and blood evaluations, including serum anti-lanreotide antibody tests were performed every 12 weeks during the 48 -week period after the first injection, and every 24 weeks thereafter.
as §1
Safety was evaluated using results which obtained by the data in the phase II and extension studies up to the time of data cutoff. The maximum exposure period from baseline to the time of data cutoff was 100.0 weeks (median, 87.3 weeks), and the mean exposure period (SD) was 83.1 weeks (15.2 weeks).
Adverse events were evaluated using the National Cancer Institute Common Terminology Criteria for Adverse Events (NCI-CTCAE), ver. 4.0.

Compound: CC(C)[C@@H]1NC(=O)[C@H](CCCCN)NC(=O)[C@@H](Cc2c[nH]c3ccccc23)NC(=O)[C@H](Cc2ccc(O)cc2)NC(=O)[C@@H](NC(=O)[C@H](N)Cc2ccc3ccccc3c2)CSSC[C@@H](C(=O)N[C@H](C(N)=O)[C@@H](C)O)NC1=O [lanreotide]
- median PFS ([1]; up to 96 weeks (24 months), placebo 18.0 months): not reached
- hazard ratio for PFS vs placebo ([1]; 95% CI 0.30-0.73, P < 0.001): 0.47
- number of doses to near-steady state ([2]; 120 mg every 4 weeks): 3 doses
- Tmax ([2]; human, in vivo, injection at 20 weeks after the first injection, read-out: median time to reach the maximum serum concentration): 3.8 h
- Tmax ([2]; human, in vivo, serum, PPS 28 patients, read-out: time of Cmax after the first injection (median)): 3.9 h
- Cmax ([2]; human, in vivo, 120 mg every 4 weeks, PPS 28 patients, mean ± SD, read-out: Cmax at 20 weeks after the first injection): 24.2 ± 20.2 ng/mL
- level at 672 h ([2]; human, serum, sc, 120 mg, PPS 28 patients, read-out: serum concentration at 4 weeks after the first injection, before injection (trough, mean ± SD)): 3.1 ± 1.4 ng/mL
- level at 4032 h ([2]; human, serum, sc, 120 mg every 4 weeks, PPS 28 patients, mean ± SD, read-out: trough concentration at 24 weeks after the first injection): 6.1 ± 3.3 ng/mL
- Cmax after the first injection (mean ± SD) ([2]; serum, 120 mg deep s.c., PPS 28 patients, RIA): 20.2 ± 18.2 ng/mL
- TGR from baseline to the last value (mean ± SD) ([3]; FAS n=28, post hoc, TGR before the first injection 25.3 ± 35.7%): 5.4 ± 10.7%
- TGR (0-Last) ([3]; FAS subgroup Age (years) >65, N=12): 5.44 ± 10.34
- TGR (0-Last) ([3]; FAS subgroup Age (years) ≤65, N=16): 5.41 ± 11.34
- TGR (0-Last) ([3]; FAS subgroup Baseline TGR (%/month) <10, N=13): 3.41 ± 9.43
- TGR (0-Last) ([3]; FAS subgroup Baseline TGR (%/month) ≥10, N=15): 7.17 ± 11.76
- TGR (0-Last) ([3]; FAS subgroup Grade of tumor Grade 1, N=9): 1.65 ± 5.95
- TGR (0-Last) ([3]; FAS subgroup Grade of tumor Grade 2, N=19): 7.21 ± 12.09
- TGR (0-Last) ([3]; FAS subgroup Hepatic tumor load (%) >10 and ≤25, N=6): 8.10 ± 15.47
- TGR (0-Last) ([3]; FAS subgroup Hepatic tumor load (%) >25 and ≤50, N=3): 9.49 ± 9.98
- TGR (0-Last) ([3]; FAS subgroup Hepatic tumor load (%) ≥0 and ≤10, N=18): 4.09 ± 9.60
- TGR (0-Last) ([3]; FAS subgroup Ki67 index (%) >2 and ≤5, N=8): 5.55 ± 8.50
- TGR (0-Last) ([3]; FAS subgroup Ki67 index (%) >5 and <10, N=9): 4.63 ± 11.81
- TGR (0-Last) ([3]; FAS subgroup Ki67 index (%) ≤ 2, N=8): 1.82 ± 6.34
- TGR (0-Last) ([3]; FAS subgroup Sex Female, N=9): 2.71 ± 10.00
- TGR (0-Last) ([3]; FAS subgroup Sex Male, N=19): 6.71 ± 11.07
- TGR (0-Last) ([3]; FAS subgroup primary tumor site Hindgut, N=8): 16.35 ± 11.02
- TGR (0-Last) ([3]; FAS subgroup primary tumor site Other/ Unknown, N=5): 4.23 ± 6.12
- TGR (0-Last) ([3]; FAS subgroup primary tumor site Pancreas, N=12): 0.43 ± 7.83
- TGR (0-Last) ([3]; FAS subgroup prior treatment for NET Absent, N=6): 0.69 ± 5.09
- TGR (0-Last) ([3]; FAS subgroup prior treatment for NET Present, N=22): 6.72 ± 11.55
- TGR (0-Last) ([3]; FAS subgroup progressive disease at baseline Absent, N=17): 1.99 ± 6.50
- TGR (0-Last) ([3]; FAS subgroup progressive disease at baseline Present, N=11): 10.74 ± 13.84
- patients with decrease in TGR at the last value ([3]; population with PD at baseline, 10 of 11 patients): 90.9%
- number of injections to steady state [4]: 6 injections
- Serious AEs ([5]; 6 patients of 32): 18.8%
- Adverse events (any) ([5]; Grade 3): 11 (34.4) Number of patients (%)
- Grade 3 or higher ADRs ([5]; Grade 3 only, 6 patients of 32): 18.8%
- Adverse events (any) ([5]; Grade 4): 2 (6.3) Number of patients (%)
- Adverse events (any) ([5]; Grade 5): 0 Number of patients (%)
- ADR faeces pale ([5]; safety analysis set n=32): 18.8%
- ADR flatulence ([5]; safety analysis set n=32): 12.5%
- ADR injection site induration ([5]; safety analysis set n=32): 28.1%
- Grade 4/5 ADRs and ADRs necessitating discontinuation of the study drug ([5]; safety analysis set n=32): did not occur
- serious ADR pyrexia ([5]; safety analysis set n=32): 3.1%
- patients with AEs related to study drug (ADRs) ([5]; safety analysis set n=32, 27 patients): 84.4%
- patients with AEs ([5]; safety analysis set n=32, 31 patients): 96.9%
